Experimental data: US6576622B1, “Drug combination for the treatment of viral diseases” (University of Medicine & Dentistry of New Jersey, priority 1995, dated 2003)

Legend:
HIV-gpt = HIV-gpt colony formation after infection of HeLa-T4 cells in the presence of antiretroviral agents; format: cell-based; details: for Number of colonies +AZT: colonies by day 10
R116 cell line = assay: MTT cytotoxicity assay in R116 cells; format: cell-based; details: persistently resistant clone R116, three days
Protocol: Three days later, drug cytotoxicity was quantitated with a standard MTT assay in which the uptake and metabolism of 3-[4,5-dimethylthiazol-2-yl]2,5-dephenyltetrazolium bromide (MTT) by cells was measured (14). The amount of formazan produced in 2 hours was determined by dissolving the product in 100% DMSO and then measuring the absorbance at 570 nm.
HeLa-T4 is the parental cell line.
Cells sensitive, parental HT4 (open circle), S1 (solid square), Spool (solid circle) and refractory, R116 (open square) were grown in the presence of various concentrations of FUdR. Three days latter, cell viability was determined by the MTT reduction method.

HIV-1IIIB [1] = details: same AZT concentration as for the persistently resistant clone
[2] = HPLC analysis of phosphorylated AZT metabolites in clones incubated with 3H-AZT; format: in vitro ADME; details: 3H-AZT for 4 hours, HPLC
Protocol: Cell lines were incubated with ^3H-thymidine or ^3H-AZT for 4 hours. Dried methanol extracts of the clones were redissolved in 60 μof distilled water and centrifuged to remove undissolved material. Twenty microliters of the sample was injected and separated on a 10×100 mm Rainin Hydropore anion exchange column. The nucleosides were eluted from the column with a linear gradient of potassium phosphate (5 mM to 1 M, pH4.0) at a flow rate of 1 ml/min. The samples were collected (0.5 ml), mixed with 5 ml Packard scintillation fluid, and quantitated using a liquid scintillation counter. Phosphorylated derivatives of thymidine and AZT were identified with authentic standards.
Pool sizes were determined by incubation of cells with ^3H-AZT for 4 hours followed by cellular extraction and HPLC. The numbers are expressed as pmoles/10^6 cells. The numbers in parentheses represent the percentage of total radioactive species in that pool.

HIV-1IIIB [3] = assay: HIV-1IIIB infection of S1 and R116 cells with AZT and FUdR (RT activity); format: cell-based; details: 0.1 μM AZT
Protocol: Infected cells were isolated in gpt selective media and expanded into cell lines. […] Cell line S1 is a control cell line.
Cell free supernatants were assayed for RT activity every two days. Results are the mean of triplicate cultures. Standard deviations were <15%.

HIV-1 IIIB = HIV-1 IIIB infection of Jurkat JE6.1 cell populations, AZT IC50 with FUdR (RT activity); format: cell-based; details: for IC50: Human immunodeficiency virus 1, IIIB, Jurkat, 144 h, concentration of AZT for 50% inhibition of RT activity at day 6, F = μM FUdR
Protocol: HIV-1 production in infected, cultures was determined by a ^32P-based assay as described (34). RT activity was determined by […] of ^32P bound to the DE81 paper by using a Molecular Dynamics phosphorimager. The results are reported as pixel units per microliter of the reaction mixture.
In these experiments, three populations of cells were studied.

[4] = tested on: recombinant HIV, recombinant MLV, or replication-competent HIV; format: cell-based
Source text: The presence of a selectable marker gene in the recombinant HIV allowed the isolation of cells infected by the recombinant viruses in the presence of d4T. These cells were characterized by infection with both additional recombinant viruses and by replication-competent viruses.
(§1) Table 6. Colony formation and persistent resistance after Hela-T4 cell infection with MLV-neo virus in the presence and absence of various antiviral agents.

HIV-LacZ = format: cell-based
MLV-neo = MLV-neo colony formation in the presence of antiviral agents; format: cell-based, Moloney Leukemia virus; details: Hela-T4, AZT 10 uM, DDI 50 uM, DDC 10 uM, D4T 50 uM, control 9050
Protocol: Production of recombinant HIV-gpt has been described elsewhere (26). The amphotropic cell line PA317 was transfected with the recombinant murine retrovirus pLXSN (36) and was used as the source of the recombinant MLV-neo virus. Stock preparations of HIV-1IIIB were harvested from H9 cells by the “shake off method” (13). Stock virus infectivity was determined by end-point dilution in MT-2 cells (32). Virus induced cytopathic effect was scored 7 days post-infection and the TCID50 was calculated with the Reed and Muench equation (33).
To confirm this high rate of infection in the absence of genetic drug resistance, we used several other recombinant viruses and host cells. […] A high rate of infection of Jurkat cells in the presence of d4T has also been seen.
Table 5. HIV-gpt produced in COS cells by transfection with plasmids (plasmid derived) is compared with HIV-gpt produced by, rescue from H9/HIV-gpt cell line after infection with HIV-IIIB and cells infected with MLV-neo.
as §1

Cc1cn([C@H]2C[C@H](N=[N+]=[N-])[C@@H](CO)O2)c(=O)[nH]c1=O [AZT, 3′-Azido-3′-deoxythymidine]
Number of colonies (HIV-gpt; HeLa-T4, plasmid derived HIV-gpt (COS cells), AZT 10 μM, DDI 50 μM, D4T 50 μM, no drug control 8800): 12
Frequency of colony formation in the presence of AZT (HIV-gpt; HeLa-T4 cells, 10 μM AZT, HIV-gpt by rescue with HIV-1): 5.0 × 10^−4
Number of colonies +AZT (HIV-gpt; HeLa-T4 cells, 10 μM AZT, HIV-gpt by rescue with HIV-1, −AZT 1.8 × 10^4): 9
Frequency of colony formation in the presence of AZT (HIV-gpt; HeLa-T4 cells, 10 μM AZT, plasmid-derived (COS cells) HIV-gpt): 5.2 × 10^−4
Number of colonies +AZT (HIV-gpt; HeLa-T4 cells, 10 μM AZT, plasmid-derived (COS cells) HIV-gpt, −AZT 3.1 × 10^4): 16
prevalence of colony formation after infection in the presence of AZT (HIV-gpt; HeLa-T4 cells, 10 μM AZT, similar with the two preparations of HIV-gpt): ~5×10^−4
cytotoxic concentration that killed 50% (R116 cell line): greater than 1 mM
inhibition of infection of control cells by replication-competent HIV (HIV-1IIIB [1]): virtually complete inhibition
concentration in cells ([2]; R116 (“persistently resistant”) cell line): 0.0155 pmoles/10^6 cells
concentration in cells ([2]; S1 (sensitive) cell line): 0.0206 pmoles/10^6 cells
HIV replication in the presence of drug (HIV-1IIIB [3]; R116 cell line refractory to AZT, FIG. 7B): significant HIV replication
antiviral efficacy (HIV-1IIIB [3]; control S1 cell line, multiplicity of infection of 1, FIG. 7A): potent antiviral efficacy
IC50 (HIV-1 IIIB; JE6.1AZTR cells (refractory to AZT)): 0.6 µM
IC50 (HIV-1 IIIB; JE6.1Con cells (control)): 0.2 µM
IC50 (HIV-1 IIIB; JE6.1 cells): 0.3 µM
increase AZT IC50 (HIV-1 IIIB; JE6.1AZTR entire population): 2 fold
subset of cells persistently refractory to d4T that were also refractory to the antiviral effects of AZT [4]: approximately 20%
Frequency ([4]; frequency of persistently resistant colonies, Hela-T4, MLV-neo): 2.2 × 10^−4
inhibition of HIV-LacZ infection (HIV-LacZ; 10 μM AZT, nine of twelve cell lines, like wild type HeLa-T4 cells): complete inhibition of infection
Frequency (HIV-LacZ; frequency of persistently resistant colonies, HeLa-T4, plasmid derived HIV-gpt): 3.4 × 10^−4
No. of colonies (MLV-neo): 12
